Laboratory results published in US6649618B2, “Substituted amidoalkyl-uracils and their use” (Bayer Aktiengesellschaft, priority 2000, dated 2003).
Read-outs that look alike come from different tables or passages of the source.

Columns and labels:
MHEC5-T cells = experiment: Cell protection assay (in vitro), H2O2-induced cell death, Alamar blue; type: cell-based; conditions: MHEC5-T endothelial cells, 3 mM H2O2, 5 hours
Method: 2) Test Description Cell Protection Assay (in vitro)
In accordance with a method described by Bowes [Bowes et al., Br. J. Pharmacol., 124, 1760-1766 (1998)], the ability of PARS inhibitors to protect cells against cell death induced by incubation with H2O2 is examined in a cell protection assay. Incubation of endothelial cells with H2O2 results in the generation of DNA strand breaks which in turn activate PARS, resulting in a drastic energy decrease in the cells and in cell death. Living cells are quantified by a fluorimetric redox indicator (Alamar blue), which is converted in the electron transport system of the mitochondria.
Specifically, 7500 MHEC5-T cells/well (DSM ACC 336; German collection of microorganisms and cell cultures) are sown in 4 replications on a 96-well plate. After 24 hours, the cells are incubated with 3 mM aqueous H2O2 solution and differing concentrations of the substances in the presence of 6% by volume of Alamar blue solution in the medium at 37° C. for 5 hours. The reference substance used is 10 μM 1,5-dihydroxyisoquinoline (DHCH) solution. After the incubation, the fluorescence is measured at an excitation wavelength of 530-560 nm and an emission wavelength of 590 nm. The percentage for the cell protection is calculated as the difference between the living cells treated only with H2O2 and the cells treated with H2O2 and PARS inhibitors. The internal standard used is 10 μM DHCH, which is defined as 100% protection. The results obtained for the other substances are compared to this value.
The EC50 values indicate the concentration at which 50% of maximum cell protection is reached, maximum protection by 10 μM DHCH being defined as 100%. DHCH has an EC50 value of 2 μM.

cytochrome P450 = conditions: Eriksson et al. 1996; cited from earlier work
[1] = Szabo and Dawson 1998; cited from earlier work
[2] = 50% of maximum protection, 10 μM DHCH defined as 100%, read-out: EC50, cell protection (in vitro)

Row | SMILES | EC50 (MHEC5-T cells; [2]) | melting point | also measured
1 | CN(CCCn1c2c(c(=O)[nH]c1=O)CCCC2)S(=O)(=O)c1cccc2nsnc12 [Example 61] | 0.5 µM | 170 °C | 
2 | CN(CCCn1c2c(c(=O)[nH]c1=O)CSCC2)S(=O)(=O)c1ccc(F)cc1 [Example 58] | 0.4 µM |  | 
3 | CN(CCCn1c2c(c(=O)[nH]c1=O)CSCC2)S(=O)(=O)c1ccc2oc(=O)ccc2c1 [Example 57] | 0.3 µM |  | 
4 | CN(CCCn1c2c(c(=O)[nH]c1=O)CCCC2)S(=O)(=O)c1cn(C)cn1 [Example 65] |  | 128 °C | 
5 | NC(=O)c1cccc(N)c1 [3-aminobenzamide] |  |  | inhibition of cytochrome P450 (unspecific PARS inhibitor) (cytochrome P450): inhibits cytochrome P450
6 | O=c1[nH]c(=O)n(C2CCCC(NS(=O)(=O)c3ccc([N+](=O)[O-])cc3)C2)c2c1CCCC2 (centres unmarked) [Example 3, N-[3-(2,4-Dioxo-3,4,5,6,7,8-hexahydro-1(2H)-quinazolinyl)cyclohexyl]4-nitrobenzenesulphonamide] |  | > 240 °C | 
7 | Nc1ccc2oc(=O)ccc2c1I [5-iodo-6-amino-1,2-benzopyrone] |  |  | side-effects [1]: serious side-effects
8 | CN(CCCn1c2c(c(=O)[nH]c1=O)CSCC2)S(=O)(=O)c1ccsc1[N+](=O)[O-] [Example 67] | 0.05 µM |  | 
9 | CN(CCCn1c2c(c(=O)[nH]c1=O)CCCC2)S(=O)(=O)c1cccnc1 [Example 55] | 0.4 µM |  | 
10 | CN(CCCn1c2c(c(=O)[nH]c1=O)CCCC2)S(=O)(=O)c1c(Cl)nc2sccn12 [Example 62] |  | > 240 °C | 
11 | CN(CCCn1c2c(c(=O)[nH]c1=O)CSCC2)S(=O)(=O)c1ccccc1 [Example 2, N-[3-(2,4-Dioxo-3,4,7,8-tetrahydro-2H-thiopyrano[4,3-d]pyrimidin-1(5H)-yl)propyl]-N-methylphenylsulphonamide] | 0.5 µM |  | 
12 | Oc1cccc2c(O)nccc12 [DHCH, 1,5-dihydroxyisoquinoline, reference compound] |  |  | EC50 (MHEC5-T cells; reference substance, read-out: EC50 value, cell protection): 2 µM
13 | CC(=O)Nc1nc(C)c(S(=O)(=O)N(C)CCCn2c3c(c(=O)[nH]c2=O)CCCC3)s1 [Example 63] |  | > 240 °C | 
14 | O=C1CCCN1CCCn1c2c(c(=O)[nH]c1=O)CCCC2 [Example 1, 1-[3-(2-Oxo-1-pyrrolidinyl)propyl]-5,6,7,8-tetrahydro-2,4(1H,3H)-quinazolinedione] |  | 189 °C | 
15 | O=c1ccc2cc(S(=O)(=O)NC3CCCC(n4c5c(c(=O)[nH]c4=O)CCCC5)C3)ccc2o1 (centres unmarked) [Example 51] |  | > 240 °C | 
16 | CN(CCCn1c2c(c(=O)[nH]c1=O)CSCC2)S(=O)(=O)c1cccnc1 [Example 59] | 0.25 µM |  | 
